Consider one molecule from PMC6934184, “Selective DNA-PKcs inhibition extends the therapeutic index of localized radiotherapy and chemotherapy” (The Journal of Clinical Investigation, 2019).

Usually inhibition stands for the relative decrease from the control value, in per cent.

For this assay, the target named is T1, IRAK4 (Homo sapiens, UniProt Q9NWZ3).
T1 construct: purchased Thermo Fisher Scientific (Life Technologies) SelectScreen
Description: SelectScreen Z'LYTE. It is filed as biochemical. In outline:
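NU5455 was profiled across the SelectScreen Broad panel of kinase activity and binding assays. Z'LYTE reactions such as CSF1R ran at apparent Km ATP, while the Adapta CAMK1 assay used ATP listed as 10. Values are given as percent.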

T1 sequence (Q9NWZ3 whole entry): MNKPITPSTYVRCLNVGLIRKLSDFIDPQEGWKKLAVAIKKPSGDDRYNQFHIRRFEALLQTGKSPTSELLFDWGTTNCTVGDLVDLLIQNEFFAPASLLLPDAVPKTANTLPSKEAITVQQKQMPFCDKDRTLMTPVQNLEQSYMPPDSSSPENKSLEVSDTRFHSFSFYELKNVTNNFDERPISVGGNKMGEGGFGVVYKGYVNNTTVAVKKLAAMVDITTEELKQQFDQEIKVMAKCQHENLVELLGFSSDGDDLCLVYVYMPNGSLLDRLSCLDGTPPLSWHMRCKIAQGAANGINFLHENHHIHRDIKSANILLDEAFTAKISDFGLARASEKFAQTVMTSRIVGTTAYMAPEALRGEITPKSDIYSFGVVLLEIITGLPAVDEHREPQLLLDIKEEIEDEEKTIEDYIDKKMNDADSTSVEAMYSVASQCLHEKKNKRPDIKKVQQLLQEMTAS

As for `CN(C(=O)CN1CCOCC1)c1ccc2sc3c(-c4cccc5c(=O)cc(N6CC7CCC(C6)O7)oc45)cccc3c2c1` [NU5455], the inhibition at 1 µM is -20.5%.
